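Dose response: 5 concentrations. Exposure: 48 h. Format: 96-well plates. Endpoint: linear interpolation; highest concentration if not reached. At the GI50, growth is halved. TGI denotes the concentration required for complete inhibition of growth.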

Among the test systems are SF-268 CNS; RPMI-8226 leukemia; MOLT-4 leukemia; PC-3 prostate; OVCAR-8 ovarian; U251 CNS; CAKI-1 renal; TK-10 renal; ACHN renal; UACC-62 melanoma.
What all share (assay): growth of human tumour cells (NCI), 48 h

For the compound `CSc1nc(SC)c2c(CN=[N+]=[N-])c(Br)n(Cc3ccccc3)c2n1`, the TGI in the test with SF-268 CNS, in the test with RPMI-8226 leukemia, with MOLT-4 leukemia, in the test with PC-3 prostate, with OVCAR-8 ovarian and with U251 CNS was greater than 100 µM each time. The TGI with CAKI-1 renal, in the test with TK-10 renal, in the test with ACHN renal and with UACC-62 melanoma was greater than 100 µM throughout.
For the compound `CNC(=O)c1ccccc1CC1(O)c2ccccc2Oc2ccccc21`, the GI50 with SF-268 CNS is 24.2 µM; in the test on RPMI-8226 leukemia it was 26.6 µM; in the test on MOLT-4 leukemia, 36.4 µM; with PC-3 prostate, 13.1 µM; in the test on OVCAR-8 ovarian, 29.1 µM; in the test on U251 CNS, 19.6 µM. Moreover, the GI50 in the test on CAKI-1 renal is 21.7 µM; in the test on TK-10 renal, 26.6 µM; in the test on ACHN renal, 26.2 µM; with UACC-62 melanoma, 10.4 µM. Also, the TGI was 85.9 µM in the test on SF-268 CNS; 91.7 µM with RPMI-8226 leukemia; greater than 100 µM in the test with MOLT-4 leukemia; 99.3 µM in the test on PC-3 prostate; greater than 100 µM with OVCAR-8 ovarian; 59.6 µM with U251 CNS. The TGI in the test on CAKI-1 renal was greater than 100 µM; in the test with TK-10 renal, 89.9 µM; in the test on ACHN renal, greater than 100 µM; in the test with UACC-62 melanoma, 52.6 µM.
In the case of `CN1CCN(Cc2ccc(C(=O)Nc3cncc(C#Cc4cnc(N)c5ccccc45)c3)cc2C(F)(F)F)CC1`, the GI50 was 4.42 µM in the test on SF-268 CNS; 2.15 µM in the test with RPMI-8226 leukemia; 2.17 µM in the test on MOLT-4 leukemia; 2.74 µM with PC-3 prostate; 2.32 µM in the test with OVCAR-8 ovarian; 1.78 µM in the test with U251 CNS. Also, the GI50 is 1.7 µM in the test on CAKI-1 renal, 1.99 µM in the test with TK-10 renal, 1.52 µM in the test with ACHN renal and 5.22 µM in the test on UACC-62 melanoma. Also, the TGI with SF-268 CNS is 17.2 µM; in the test on RPMI-8226 leukemia it was 5.27 µM; in the test on MOLT-4 leukemia, 5.31 µM; in the test on PC-3 prostate, 10.1 µM; with OVCAR-8 ovarian it was 5.38 µM; in the test on U251 CNS, 3.33 µM. In addition, the TGI with CAKI-1 renal was 3.69 µM; with TK-10 renal, 3.74 µM; in the test with ACHN renal, 2.97 µM; in the test on UACC-62 melanoma it was 17.5 µM.
`CC(CO)(CO)N=Cc1cc(I)cc(I)c1O`: the TGI with SF-268 CNS was 36.5 µM; in the test on RPMI-8226 leukemia, greater than 100 µM; in the test on MOLT-4 leukemia it was 47.5 µM; in the test on PC-3 prostate, 32.1 µM; with OVCAR-8 ovarian it was 48.5 µM; in the test with U251 CNS, 28.3 µM. Besides, the TGI in the test on CAKI-1 renal was 68.2 µM; in the test with TK-10 renal, 84.2 µM; with ACHN renal it was 69.9 µM; in the test on UACC-62 melanoma, 30.7 µM.
`O=C(CCN1CCN(c2cnc3ccccc3n2)CC1)c1csc2ccccc12`: the GI50 is greater than 100 µM in the test on SF-268 CNS; 9.4 µM with RPMI-8226 leukemia; 35.7 µM in the test on MOLT-4 leukemia; 28.1 µM in the test with PC-3 prostate; greater than 100 µM with OVCAR-8 ovarian; 47.8 µM in the test on U251 CNS. Further, the GI50 with CAKI-1 renal is 18.9 µM; with TK-10 renal, 19.5 µM; in the test on ACHN renal, 19.5 µM; in the test on UACC-62 melanoma, 49.5 µM. The TGI in the test with SF-268 CNS, in the test with RPMI-8226 leukemia, in the test with MOLT-4 leukemia, in the test on PC-3 prostate, in the test on OVCAR-8 ovarian and in the test with U251 CNS was greater than 100 µM throughout. Moreover, the TGI was 35.8 µM in the test on CAKI-1 renal, 42.6 µM in the test with TK-10 renal, 42.1 µM in the test with ACHN renal and greater than 100 µM in the test with UACC-62 melanoma.
For `CN(C)CC(=O)N1CCC(c2ccc(NC(=O)c3ncc(C#N)[nH]3)c(C3=CCCCC3)c2)CC1`, the GI50 with SF-268 CNS is 10.4 µM; in the test on RPMI-8226 leukemia it was 8.76 µM; in the test with MOLT-4 leukemia, 3.72 µM; in the test on PC-3 prostate, 8.38 µM; with OVCAR-8 ovarian, 8.34 µM; with U251 CNS, 4.66 µM. The GI50 in the test on CAKI-1 renal was 3.52 µM; in the test on TK-10 renal it was 7.86 µM; in the test on ACHN renal, 5.42 µM; in the test with UACC-62 melanoma, 3.3 µM. Further, the TGI was 24.2 µM in the test on SF-268 CNS; 34.6 µM in the test with RPMI-8226 leukemia; 12.7 µM in the test on MOLT-4 leukemia; 25.5 µM with PC-3 prostate; 24 µM in the test on OVCAR-8 ovarian; 16.9 µM in the test on U251 CNS. The TGI amounted to 16.1 µM in the test with CAKI-1 renal, 20.6 µM in the test on TK-10 renal, 17.8 µM in the test on ACHN renal and 11.7 µM in the test with UACC-62 melanoma.
With `Brc1cccc(-c2cc(-c3ccc4c(c3)OCCO4)[nH]n2)c1`, the GI50 in the test on SF-268 CNS was 3.11 µM; in the test on RPMI-8226 leukemia, 1.43 µM; in the test on MOLT-4 leukemia, 1.09 µM; in the test with PC-3 prostate it was 1.44 µM; in the test on OVCAR-8 ovarian, 1.68 µM; in the test with U251 CNS it was 1.2 µM. The GI50 was 0.953 µM with CAKI-1 renal, 3.3 µM in the test with TK-10 renal, 1.54 µM in the test with ACHN renal and 0.871 µM in the test on UACC-62 melanoma. Besides, the TGI with SF-268 CNS stood at 37.1 µM; in the test on RPMI-8226 leukemia, 236 µM; with MOLT-4 leukemia, 101 µM; in the test on PC-3 prostate it was 41.4 µM; with OVCAR-8 ovarian, 40.1 µM; in the test on U251 CNS, 33.4 µM. Moreover, the TGI in the test on CAKI-1 renal stood at 29.8 µM; in the test with TK-10 renal it was 40.7 µM; in the test with ACHN renal it was 33.2 µM; with UACC-62 melanoma it was 40.9 µM.
For `Cc1ccn2c3c(c(C(=O)O)c2c1)C(=O)c1ccccc1C3=O`, the GI50 in the test on SF-268 CNS is greater than 100 µM; in the test with RPMI-8226 leukemia, greater than 100 µM; in the test with MOLT-4 leukemia, greater than 100 µM; in the test on PC-3 prostate, greater than 100 µM; in the test on OVCAR-8 ovarian, greater than 100 µM; in the test with U251 CNS, 15.7 µM. Further, the GI50 is greater than 100 µM in the test on CAKI-1 renal, greater than 100 µM in the test with TK-10 renal, greater than 96.4 µM in the test with ACHN renal and 2.44 µM in the test on UACC-62 melanoma. In addition, the TGI in the test on SF-268 CNS, in the test with RPMI-8226 leukemia, in the test on MOLT-4 leukemia, in the test on PC-3 prostate, in the test with OVCAR-8 ovarian and in the test on U251 CNS was greater than 100 µM each time. Further, the TGI is greater than 100 µM in the test on CAKI-1 renal, greater than 100 µM in the test with TK-10 renal, greater than 100 µM in the test with ACHN renal and 9.13 µM in the test on UACC-62 melanoma.
